Laboratory results as given in patent US6548555B1, “Basic drug compositions with enhanced bioavailability” (Pfizer Inc, priority 1999, dated 2003).

Key:
[1] = HPMCAS dispersions, dissolution tests at pH 4.0; cited from earlier work
[2] = Solubility of the Example 6 drug at pH 2 and pH 6.8; assay type: physicochemical; conditions: thermodynamic from solid
Description: A test drug is dissolved in a pH 1-2 environment, typically aqueous deionized distilled water adjusted to a target pH within the aforesaid pH 1-2 range by adding an appropriate amount of hydrochloric acid. The amount of drug added is an amount sufficient to saturate the aqueous test medium. The test medium can be agitated, typically gently, by means of a stirring bar, overhead stirrer, or the like. Typically the test medium is left to sit (while being agitated) for several hours, typically overnight. The sample can then be filtered or centrifuged as previously described, and solubility in the filtrate or supernate can then be measured by determining the concentration with any suitable means of detection appropriate to the drug. Likewise, the solubility is also determined at pH 5 to 7. If the drug's pH 1-2 solubility is 3- or more-fold its pH 5-7 solubility, then the drug will benefit from this invention.

[3] = Dissolution test by microcentrifuge method, Example 6; assay type: physicochemical; conditions: 37° C., 2.7 mg drug, 3.6 mg polymer or none, 1.8 mL
Description: Dissolution performance was measured at 37° C. using a microcentrifuge method. For these tests, 2.7 mg drug in 0.9 mLs 25% gastric solution/75% HPLC water was added to each of 6 microcentrifuge tubes. At time 0, 0.9mLs 2×PBS without polymer was added to tubes 1 and 2, and 0.9 mLs 2×PBS containing 3.6 mg HPMCAS-MF or cellulose acetate trimellitate (CAT) was added to tubes 3 and 4, or 5 and 6. Samples were taken after 4, 10, 20, 40, 90, and 180 minutes, analyzed by HPLC, and compound concentrations were calculated. Gastric solution is 84 mM HCl, 34 mM NaCl, pH 1.2. PBS is phosphate buffered saline: 20 mM sodium phosphate, 4.7 mM potassium phosphate, 8.2 mM NaCl, 0.2 mM KCl, pH 6.5. “2×PBS” is a solution in which the components of PBS are present at 2-fold higher concentration.

CCC1OC(=O)CC(O)C(C)C(OC2OC(C)C(OC3CC(C)(O)C(OC(=O)Cc4ccc(OC)cc4)C(C)O3)C(N(C)C)C2O)C(CC=O)CC(C)C(=O)C=CC(C)=CC1COC1OC(C)C(O)C(OC)C1OC (stereo not drawn) [MAT, 4″-O-(4-methoxyphenyl)acetyltylosin]
supersaturated concentration relative to crystalline MAT [1]: 9 fold

CN1CCN(c2ccccc2/C=C2\SCCN(c3ccc(Cl)c(Cl)c3)C2=O)CC1.Cl.O [Z-4-(3,4-dichlorophenyl)-2-[2-(4-methylpiperazin-1-yl)-benzylidene]-thiomorpholin-3-one hydrochloride monohydrate]
solubility ([2]; deionized distilled water adjusted with hydrochloric acid, pH 2, simulated gastric fluid): 3000 µg/mL
solubility ([2]; pH 6.8, aqueous buffer): 12 µg/mL
Drug Conc ([3]; 4 min after adding 2xPBS to drug in 25% gastric solution): 518 µg/mL
Drug Conc ([3]; 10 min after adding 2xPBS to drug in 25% gastric solution): 459 µg/mL
Drug Conc ([3]; 20 min after adding 2xPBS to drug in 25% gastric solution): 432 µg/mL
Drug Conc ([3]; 40 min after adding 2xPBS to drug in 25% gastric solution): 317 µg/mL
Drug Conc ([3]; 90 min after adding 2xPBS to drug in 25% gastric solution): 263 µg/mL
Drug Conc ([3]; 180 min after adding 2xPBS to drug in 25% gastric solution): 204 µg/mL
